No end group written: not given here.

Data set [1] can be described thus: adsorption onto glass container in liquid form. It is filed as physicochemical. From the text: However, with regard to compounds Which do have such a tendency when in liquid final, a surfactant should be used in their formulation. These formulations may then be lyophilized. Surfactants frequently cause denaturation of protein, both of hydrophobic disruption and by salt bridge separation. Relatively low concentrations of surfactant may exert a potent denaturing activity, because of the strong interactions between surfactant moieties and the reactive sites on proteins. However, judicious use of this interaction can stabilize proteins against interfacial or surface denaturation. Surfactants which could further stabilize the peptide may optionally be present in the range of about 0.001 to 0.3% (w/v) of the total formulation and include polysorbate 80 (i.e., polyoxyethylene(20) sorbitan monooleate), CHAPS® (i.e., 3-[(3-Cholamidopropyl)dimethylammonio]propanesulfonic acid), BRIJ® (e.g., Brij 35, which is (polyoxyethylene(23) lauryl ether), poloxamer, or another non-ionic surfactant.

The conditions of data set [2]: in treated test animals; cited from earlier work.
The conditions of data set [3]: compared to human amylin; cited from earlier work.
The next data set has as its system cloned GLP-1 receptor. The following applies: cells transfected with the cloned GLP-1 receptor; cited from earlier work.
In the next data set the test system is T2DM patients. The settings on record: head-to-head comparator trial; cited from earlier work.

`CC[C@H](C)[C@H](NC(=O)[C@@H]1CCCN1C(=O)CNC(=O)[C@H](Cc1ccccc1)NC(=O)[C@H](CC(N)=O)NC(=O)[C@H](CC(N)=O)NC(=O)[C@H](CO)NC(=O)[C@H](CO)NC(=O)[C@H](Cc1c[nH]cn1)NC(=O)[C@@H](NC(=O)[C@H](CC(C)C)NC(=O)[C@H](Cc1ccccc1)NC(=O)[C@H](CC(N)=O)NC(=O)[C@H](C)NC(=O)[C@H](CC(C)C)NC(=O)[C@H](CCCNC(=N)N)NC(=O)[C@H](CCC(N)=O)NC(=O)[C@@H](NC(=O)[C@H](C)NC(=O)[C@@H]1CSSC[C@H](NC(=O)[C@@H](N)CCCCN)C(=O)N[C@@H](CC(N)=O)C(=O)N[C@@H]([C@@H](C)O)C(=O)N[C@@H](C)C(=O)N[C@@H]([C@@H](C)O)C(=O)N1)[C@@H](C)O)C(C)C)C(=O)N[C@@H](CC(C)C)C(=O)N1CCC[C@H]1C(=O)N1CCC[C@H]1C(=O)N[C@H](C(=O)N[C@@H](CC(N)=O)C(=O)N[C@H](C(=O)NCC(=O)N[C@@H](CO)C(=O)N[C@@H](CC(N)=O)C(=O)N[C@H](C(=O)N[C@@H](Cc1ccc(O)cc1)C(N)=O)[C@@H](C)O)C(C)C)[C@@H](C)O` [^25,28,29Pro-h-amylin, reference compound]: in data set [1], the “tendency to adsorb onto the glass” value is listed as “does not have a tendency to adsorb onto the glass”. In data set [2], the amylin activity entry was “amylin activity in vivo”.
With “^18Arg^25,28Pro-h-amylin (KCNTATCATQRLANFLVRSSNNFGPILPSTNVGSNTY) [amylin agonist analog]”, the “solubility and stability characteristics” value in data set [3] is “more desirable solubility and stability characteristics”. For the same compound, in data set [2], the amylin activity entry was “amylin activity in vivo”.
With “^25Pro^26Val^28,29Pro-h-amylin (KCNTATCATQRLANFLVHSSNNFGPVLPPTNVGSNTY) [amylin agonist analog]”, the “solubility and stability characteristics” value in data set [3] is “more desirable solubility and stability characteristics”.
For the compound “^28Pro-h-amylin (KCNTATCATQRLANFLVHSSNNFGAILPSTNVGSNTY) [amylin agonist analog]”, the amylin activity entry in data set [2] is recorded as “amylin activity in vivo”.
On to “des-^1Lys-h-amylin (CNTATCATQRLANFLVHSSNNFGAILSSTNVGSNTY; ends and bridges not checked; cysteine pairing not given here; UniProt P10997 34-70, looked up, variant K1*) [amylin agonist analog]”, for which the amylin activity entry in data set [2] is given as “amylin activity in vivo”.
In the case of des-^1Lys^18Arg^25,28Pro-h-amylin, the amylin activity result in data set [2] is “amylin activity in vivo”.
In the case of exendin[9-39], in the data set on cloned GLP-1 receptor, the “functional activity (cAMP)” value is “antagonist”.
Take insulin glargine: in the data set with T2DM patients, the HbA1c reductions is given as approximately 1.1% and the weight gain is given as approximately 1.8 kg.

The values are drawn from patent publication US8389472B2, “Exendin-4 to treat nonalcoholic steatohepatitis and nonalcoholic fatty liver disease” (Amylin Pharmaceuticals, LLC, priority 2005, dated 2013).
